The results in this text go back to US20250387481A1, “PRE-TREATED T CELLS FOR USE AS A MEDICAMENT” (STICHTING HET NEDERLANDS KANKER INSTITUUT-ANTONI VAN …, priority 2022, published 2025).

The test system of data set [1] is MMTV-PyMT organoids expressing OVA. Nature of the data set: Co-culture of OT I T cells with MMTV-PyMT organoids expressing OVA (cleaved-caspase 3). Type of data set: cell-based, mouse. Conditions: OT I T cells pre-treated with docetaxel vs control. How it is done:
Experiments were approved by the Animal Welfare Committee of the Netherlands Cancer Institute and were performed in accordance with national guidelines. Mice were housed in individually ventilated cage (IVC) systems under specific pathogen-free conditions and received chow and water ad libitum. FVB/NRj females (Janvier), C57BL/6-Tg (TcraTcrb) 1100Mjb/J females (OT I mice, Jackson laboratory), and ROSA26mTmG FVB females (NKI) were used at 8-20 weeks of age at the time of fat pad injection of tumor organoids or spleen isolation.
For T cells isolated from mouse mammary tumors, T cells were directly co-cultured with tumor organoids after FACS isolation. For T cells isolated from the spleen, T cells were treated for 72 h with PBS or with docetaxel (docetaxel 10 nmol/L), in the presence or absence of an LCKi (10 μmol/L, Merck Millipore, Cat. No. 213743-31-8). To evaluate the docetaxel-specificity of our observations, T cells were treated with paclitaxel 10 nmol/L or carboplatin 50 μmol/L for 72 h. Subsequently, T cells were collected and washed 3 times in PBS to remove residual chemotherapy or LCKi.
Organoids were fixed in 4% paraformaldehyde in PBS for 20 min at room temperature, followed by permeabilization in 0.2% TritonX-100 in PBS for 15 min at room temperature. […]

Data set [2] relates to human lung tumor organoids. Description: Tumor organoids killing assay with autologous tumor-reactive T cells. The format is cell-based. Particulars: tumor-reactive T cells pre-treated with 10 nmol/L docetaxel. How it is done:
To express luciferase in the tumor organoids, we used pLenti CMV Puro LUC (w168-1; Plasmid #17477; Addgene). Tumor-reactive PBMC were thawed in pre-warmed T cell medium and incubated for 15 minutes with 25 U/ml Benzonase. After washing, cells were re-suspended at 2−3×10^6 cells/ml in T cell medium and cultured overnight at 37° C. The day after, PBMC were incubated with (or without) 10 nmol/L docetaxel for 48 hr. To determine the sensitivity of tumor and healthy organoids to T cell-mediated killing, flatbottom non-tissue culture treated plates were coated with 5 μg/ml αCD28 and kept at 4° C. overnight prior to co-culture. Tumor organoids were previously transduced with luciferase reporter gene. Organoids were isolated from Geltrex 48 hours prior to co-culture and stimulated with 200 ng/ml IFNγ for 24 hr prior to co-culture. The next day, part of the organoids was dissociated to single cells and counted using a hemocytometer. […] At the end of the 72 hours, tumor and healthy organoids viability in the different conditions was evaluated by microscopy, taking bright-field pictures at 5 and 10× magnification. Tumor cell viability in the different conditions was also measured by luciferase reporter assay using 3 μg/mL luciferin. Luminescence was measured with a Tecan reader (1,000 ms exposure).

The structures appear in SMILES notation.

In the case of `CC(=O)O[C@@]12CO[C@@H]1C[C@H](O)[C@@]1(C)C(=O)[C@H](O)C3=C(C)[C@@H](OC(=O)[C@H](O)[C@@H](NC(=O)OC(C)(C)C)c4ccccc4)C[C@@](O)([C@@H](OC(=O)c4ccccc4)[C@H]21)C3(C)C` [docetaxel], in data set [1], the “cytotoxicity of OT I T cells (apoptosis in OVA+ organoids)” value is reported as “further enhanced”. The “anti-tumor capacity against tumor organoids (organoid viability, luciferase)” value in data set [2] is recorded as “increased their anti-tumor capacity”.
